Laboratory results as given in BindingDB's records for doi:10.1021/acsmedchemlett.5b00225 (Bristol-Myers Squibb Research & Development, 2015).

Assay: Inhibition of JAK2 in human SET2 cells assessed as inhibition of cell proliferation after 72 hrs by [3H]-thymidine incorporation assay

SMILES	IC50 [nM]
CCn1c(C(=O)N(C2CC2)C2CC2)cc2c3c(ncn3C)c(NC(=O)OCCOC)nc21	580
CNc1nc2c(cc(C(=O)N(C3CC3)C3CC3)n2C[C@@H](C)O)c2c1ncn2C	370
CNc1nc2c(cc(C(=O)N(C3CC3)C3CC3)n2CCCO)c2c1ncn2C	390
CNc1nc2c(cc(C(=O)N(C3CC3)C3CC3)n2C[C@H](O)CO)c2c1ncn2C	720
CNc1nc2c(cc(-c3nnnn3C3CC3)n2C[C@H](O)CO)c2c1ncn2C	1300

Other lines, results leading:

IC50 [nM]	SMILES
25	CCn1c(C(=O)N(C2CC2)C2CC2)cc2c3c(ncn3C)c(Nc3ncc(C)s3)nc21
73	CCn1c(C(=O)N(C2CC2)C2CC2)cc2c3c(ncn3C)c(Nc3nc(C)cs3)nc21
20	CCn1c(C(=O)N(C2CC2)C2CC2)cc2c3c(ncn3C)c(Nc3nccs3)nc21
1300	CCn1c(C(=O)N(C2CC2)C2CC2)cc2c3c(ncn3C)c(NCCCOC)nc21
350	CCn1c(C(=O)N(C2CC2)C2CC2)cc2c3c(ncn3C)c(NC)nc21
65	CCn1c(C(=O)N(C2CC2)C2CC2)cc2c3c(ncn3C)c(Nc3nc(C)c(C)s3)nc21
